Measured values taken from article PMC9186361 (Drug Delivery, 2022).
≈ marks a conversion by molar mass, not a printed value.

Tests used:
[1] = Saturation solubility of rutin by shake flask method; assay type: physicochemical; details: thermodynamic from solid
[2] = molecular target: T1, thrombin (Homo sapiens, UniProt P00734); assay: Hydrolysis of chromogenic substrate S2238 by thrombin in vitro; assay type: biochemical; details: rutin up to 50 μM, 0.4 U/mL thrombin
T1 construct: Human thrombin was purchased from Hematologic Technologies Inc. (Essex Junction, VT); purchased Hematologic Technologies Inc. (Essex Junction, VT)
From the text: We tested the antithrombotic effects of NanoR and NaR ex vivo and in vivo. Thrombin plays a pivotal role in the coagulation process, and its amount reflects the hemostatic function (Mann, [2003]). […] In our clot formation study, the treatment with NanoR and NaR led to delayed clotting initiation time and a limited extent of clot formation. Again, NanoR exerted a stronger anticoagulatory effect than NaR, and excess exogenous PDI restored the coagulation function of pretreated plasma in clot formation assay. […] The link between obstructive atherosclerosis in the epicardial coronary arteries and myocardial ischemia is well established. In the past several decades, however, a number of studies have discovered that coronary microvascular dysfunction and remodeling contribute to myocardial ischemia in patients with normal coronary arteries. […] Recently, a novel two-stage mechanism for the action of FeCl3 in thrombus formation has been proposed. The first stage is based on colloidal chemistry principles whereby cells and plasma proteins adhere and aggregate due to the binding of negatively charged proteins to positively charged iron species. The extent of this stage is dependent on effective FeCl3 concentration, which is governed by intraluminal mass transport. […] (A) The hydrolysis of chromogenic substrate S2238 by different concentrations of thrombin was determined.

[3] = tested on: PDI; design: method as in Jasuja et al., 2012; details: insulin-based turbidimetric assay; 95% CI 1.1–10.7 μM; ref Jasuja et al., 2012; read-out: IC50 of PDI inhibition; cited from earlier work

C[C@@H]1O[C@@H](OC[C@H]2O[C@@H](Oc3c(-c4ccc(O)c(O)c4)oc4cc(O)cc(O)c4c3=O)[C@H](O)[C@@H](O)[C@@H]2O)[C@H](O)[C@H](O)[C@H]1O [rutin, quercetin-3-O-rutinoside]
solubility at 72 h ([1]; organic solvent or mixture, in 1,2-propylene glycol, 37 °C, 72 h): 32 ± 2 mg/mL (≈ 52.4 mM)
solubility at 72 h ([1]; self-emulsifying formulation F2, 37 °C, in formulation F2): 24.3 ± 3.2 mg/mL (≈ 39.8 mM)
solubility at 72 h ([1]; self-emulsifying formulation F5, 37 °C, in formulation F5): 19.2 ± 2.8 mg/mL (≈ 31.4 mM)
solubility at 72 h ([1]; self-emulsifying formulation F7, 37 °C, in formulation F7): 16.2 ± 3.7 mg/mL (≈ 26.5 mM)
solubility at 72 h ([1]; in Labrasol, 37 °C, 72 h): 5.2 ± 0.18 mg/mL (≈ 8.52 mM)
effect on thrombin activity (hydrolysis of S2238) [2]: did not inhibit thrombin proteolytic activity
effect on thrombin activity (hydrolysis of S2238) ([2]; listed as native rutin): did not affect the activity of thrombin
IC50 [3]: 6.1 µM
